Values of other authors in patent US12150969B2, “Synthetically enveloped virus” (priority 2016, dated 2024).

Columns and labels:
[1] = system: Ras-dependent tumor growth; conditions: established cancer models
[2] = system: Ras

In the case of `CC(C)=CCC/C(C)=C/CC/C(C)=C/CSc1ccccc1C(=O)O` [FTS, S-trans, trans-farnesylthiosalicylic acid], the “tumor growth and toxicity in animals” value [1] is given as “inhibition of tumor growth in animals with no adverse toxicity” and the Ras antagonist activity [2] is given as “potent and especially nontoxic Ras antagonist”.
